From patent US20090312349A1, “ANTI-INFLAMMATORY MEDICAMENTS” (priority 2004, published 2009)

How the values were obtained:
Assay type in all cases: biochemical
[1] = biological target: KDR kinase (Homo sapiens, UniProt P35968, DEL940-989/E990V); assay: KDR kinase assay K1; conditions: read-out: Results, % @ concentration μM, Method K1; @ 10 μM
Procedure: IC50 values were calculated from a series of percent inhibition values determined at a range of inhibitor concentrations using software routines as implemented in the GraphPad Prism software package.

[2] = biological target: T1, phospho p-38 alpha kinase (Homo sapiens, UniProt Q16539); assay: P-38 alpha kinase assay (spectrophotometric, pyruvate kinase/lactate dehydrogenase coupled); conditions: Table 5; for IC50: assay not named, read-out: uM
T1 construct: purchased Panvera
T1 sequence (Q16539 whole entry): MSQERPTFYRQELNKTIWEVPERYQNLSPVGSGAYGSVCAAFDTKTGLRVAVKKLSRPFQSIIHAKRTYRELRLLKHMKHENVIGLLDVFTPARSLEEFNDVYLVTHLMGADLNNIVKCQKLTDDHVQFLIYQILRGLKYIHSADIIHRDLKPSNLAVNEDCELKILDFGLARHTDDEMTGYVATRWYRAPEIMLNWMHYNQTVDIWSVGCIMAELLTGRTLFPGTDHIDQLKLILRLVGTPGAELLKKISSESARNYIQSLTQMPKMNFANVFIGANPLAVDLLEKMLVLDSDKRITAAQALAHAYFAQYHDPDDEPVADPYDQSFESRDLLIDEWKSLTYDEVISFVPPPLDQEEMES

[3] = biological target: phosphorylated p-38-alpha kinase (Homo sapiens, UniProt Q16539); assay: P-38 alpha kinase assay P1; conditions: Method P1; for IC50: 2 h pre-incubation before ATP
Chain of phosphorylated p-38-alpha kinase (Q16539 1-360 isoform Q16539-2): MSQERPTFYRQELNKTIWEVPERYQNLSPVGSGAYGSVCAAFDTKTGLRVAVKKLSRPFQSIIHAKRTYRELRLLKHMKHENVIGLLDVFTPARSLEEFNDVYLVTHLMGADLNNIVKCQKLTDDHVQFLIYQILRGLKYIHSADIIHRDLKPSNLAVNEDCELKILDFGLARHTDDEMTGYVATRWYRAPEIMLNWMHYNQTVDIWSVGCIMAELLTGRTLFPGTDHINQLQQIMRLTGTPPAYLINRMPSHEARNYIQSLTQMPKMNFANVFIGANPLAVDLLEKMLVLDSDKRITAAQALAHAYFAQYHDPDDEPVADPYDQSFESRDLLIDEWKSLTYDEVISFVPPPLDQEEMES

[4] = biological target: B-Raf(V599E) kinase (Homo sapiens, UniProt P15056, V600E); assay: B-Raf(V599E) kinase assay B1; conditions: for IC50: Method B1, construct 1; for inhibition at 1 µM: read-out: Results, % @ concentration μM
Chain of B-Raf(V599E) kinase (P15056 with tags, fused parts or gaps V600E): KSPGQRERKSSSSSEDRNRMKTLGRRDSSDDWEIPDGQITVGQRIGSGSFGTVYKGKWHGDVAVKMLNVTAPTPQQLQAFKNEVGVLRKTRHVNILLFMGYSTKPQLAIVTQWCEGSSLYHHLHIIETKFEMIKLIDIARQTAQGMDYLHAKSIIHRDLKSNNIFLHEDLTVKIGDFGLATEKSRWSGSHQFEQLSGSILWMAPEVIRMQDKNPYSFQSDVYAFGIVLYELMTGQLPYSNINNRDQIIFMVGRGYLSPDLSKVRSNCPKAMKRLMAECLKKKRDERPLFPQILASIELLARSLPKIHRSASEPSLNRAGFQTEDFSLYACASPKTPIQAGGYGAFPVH
Procedure: The test compounds were incubated with the reaction mixture at 30° C. for 2 h. […] The reaction rate was calculated using the 1.5 h to 2.5 h time frame. […] IC50 values were calculated from a series of percent inhibition values determined at a range of inhibitor concentrations using software routines as implemented in the GraphPad Prism software package.

Chain of KDR kinase (P35968 with tags, fused parts or gaps DEL940-989/E990V): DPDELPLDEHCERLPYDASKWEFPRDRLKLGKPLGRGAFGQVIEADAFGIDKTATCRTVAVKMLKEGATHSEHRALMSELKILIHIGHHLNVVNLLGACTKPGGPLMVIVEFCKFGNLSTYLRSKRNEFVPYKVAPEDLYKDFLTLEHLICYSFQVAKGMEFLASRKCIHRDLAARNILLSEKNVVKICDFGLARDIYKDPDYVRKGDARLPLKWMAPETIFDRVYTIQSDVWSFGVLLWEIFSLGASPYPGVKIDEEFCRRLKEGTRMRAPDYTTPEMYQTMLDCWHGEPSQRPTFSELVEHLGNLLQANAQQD

IC50 [2] | SMILES | IC50 [3] | further results
 | O=C(Cc1cccc(-n2nc(-c3ccccc3)cc2NC(=O)Nc2cccc(Cl)c2Cl)c1)NCCO [Example 454, 1-(2,3-dichlorophenyl)-3-(1-(3-(2-(2-hydroxyethylamino)-2-oxoethyl)phenyl)-3-phenyl-1H-pyrazol-5-yl)urea] |  | inhibition at 10 µM [1]: 27%
 | CC(C(N)=O)c1cccc(-n2nc(-c3ccsc3)cc2NC(=O)Nc2cccc(Cl)c2Cl)c1 (stereo not drawn) [Example 453, 1-(1-(3-(1-amino-1-oxopropan-2-yl)phenyl)-3-(thiophen-3-yl)-1H-pyrazol-5-yl)-3-(2,3-dichlorophenyl)urea] |  | inhibition at 10 µM [1]: 34%
 | NC(=O)Cc1cccc(-n2nc(-c3cccs3)cc2NC(=O)Nc2cccc(Cl)c2Cl)c1 [Example 451, 1-(1-(3-(2-amino-2-oxoethyl)phenyl)-3-(thiophen-2-yl)-1H-pyrazol-5-yl)-3-(2,3-dichlorophenyl)urea] | 0.008 µM | % @ concentration, uM ([2]; @ 1 uM): 3% @1; IC50 [4]: 0.84 µM
 | O=C(O)Cc1cccc(-n2nc(-c3cccs3)cc2NC(=O)Nc2cccc(Cl)c2Cl)c1 [Example 435, 2-(3-(5-(3-(2,3-dichlorophenyl)ureido)-3-(thiophen-2-yl)-1H-pyrazol-1-yl)phenyl)acetic acid] |  | IC50 [4]: 0.16 µM
 | O=C(O)Cc1cccc(-n2nc(-c3cccc(F)c3)cc2NC(=O)Nc2cccc(Cl)c2Cl)c1 [Example 432, 2-(3-(5-(3-(2,3-dichlorophenyl)ureido)-3-(3-fluorophenyl)-1H-pyrazol-1-yl)phenyl)acetic acid] | 0.011 µM | % @ concentration, uM ([2]; @ 1 uM): 9%; % @ concentration, uM ([2]; @ 10 uM): 24%
 | O=C(Nc1cccc(Cl)c1Cl)Nc1cc(-c2ccccc2F)nn1-c1ccc(CC(=O)N2CC[C@H](O)C2)cc1 [Example 479, 1-(2,3-dichlorophenyl)-3-(3-(2-fluorophenyl)-1-(4-(2-((S)-3-hydroxypyrrolidin-1-yl)-2-oxoethyl)phenyl)-1H-pyrazol-5-yl)urea] | 0.037 µM | 
 | CCOC(=O)C(C)Cc1ccc(-n2nc(C(C)(C)C)cc2NC(=O)Nc2ccc(Cl)cc2)cc1 (stereo not drawn) [Example 326, ethyl 3-(4-{3-t-butyl-5-[3-(4-chlorophenyl)ureido]-1H-pyrazol-1-yl}phenyl)-2-methylpropanoate] |  | % @ concentration, uM ([2]; @ 10 uM): 41% @ 10
4.45 µM | CC(C)(C)c1cc(NC(=O)Nc2ccc(Cl)cc2)n(-c2cccc(CNC(=O)N3CCCC3)c2)n1 [Example 387, 1-(3-r-butyl-1-{3-[(pyrrolidine-1-carboxamido)methyl]phenyl}-1H-pyrazol-5-yl)-3-(4-chlorophenyl)urea] |  | 
0.52 µM | CCOC(=O)Cc1cccc(-n2nc(C(C)(C)C)cc2NC(=O)Nc2cccc(Cl)c2Cl)c1 [Example 321, ethyl 2-(3-{3-t-butyl-5-[3-(2,3-dichlorophenyl)ureido]-1H-pyrazol-1-yl}phenyl)acetate] |  | 
0.27 µM | Cc1cc(NC(=O)Nc2ccc(Cl)cc2)n(-c2ccc(CO)cc2)n1 [Example 345, 1-(4-chlorophenyl)-3-{1-[4-(hydroxymethyl)phenyl]-3-methyl-1H-pyrazol-5-yl}urea] |  | 
0.04 µM | CCOC(=O)Cc1cccc(-n2nc(C(C)(C)C)cc2NC(=O)Nc2ccccc2)c1 [Example 397, ethyl 2-{3-[3-t-butyl-5-(3-phenylureido)-1H-pyrazol-1-yl]phenyl}acetate] |  | 
1 µM | CCOC(=O)c1cccc(-n2nc(C)cc2NC(=O)Nc2cccc(Cl)c2Cl)c1 [Example 342, ethyl 3-{5-[3-(2,3-dichlorophenyl)ureido]-3-methyl-1H-pyrazol-1-yl}benzoate] |  | 
0.0147 µM | CC(C)(C)c1cc(N)n(-c2ccc(O)cc2)n1 [Example 420, 4-(3-t-butyl-5-amino-1H-pyrazol-1-yl)phenol] |  | 
0.043 µM | O=C(Nc1cccc(Cl)c1)Nc1cc(-c2ccccc2)nn1-c1cccc(CO)c1 [Example 352, 1-{3-phenyl-1-[3-(hydroxymethyl)phenyl]-1H-pyrazol-5-yl}-3-(3-chlorophenyl)urea] |  | 
 | Cc1cc(NC(=O)Nc2cccc(Cl)c2Cl)n(-c2ccc(CO)cc2)n1 [Example 347, 1-(2,3-dichlorophenyl)-3-{1-[4-(hydroxymethyl)phenyl]-3-methyl-1H pyrazol-5-yl}urea] |  | % @ concentration, uM ([2]; @ 0.1 uM): 8%; % @ concentration, uM ([2]; @ 1 uM): 31%
0.0147 µM | CC(C)(C)c1cc(NC(=O)Nc2ccc(Cl)cc2)n(-c2ccc(O)cc2)n1 [Example 421, 1-(3-t-butyl-1-(4 hydroxyphenyl)-1H-pyrazol-5-yl)-3-(4-chlorophenyl)urea] |  | 
 | CC(C)(C)c1cc(NC(=O)Nc2cccc3ccccc23)n(-c2cccc(CO)c2)n1 [Example 367, 1-{3-t-butyl-1-[3-(hydroxymethyl)phenyl]-1H-pyrazol-5-yl)-3-(naphthalen-1-yl)-urea] |  | % @ concentration, uM ([2]; @ 10 uM): 85% @ 10
 | NC(=O)Cc1cccc(-n2nc(-c3ccccc3)cc2NC(=O)Nc2cccc(Cl)c2Cl)c1 [Example 447, 1-(1-(3-(2-amino-2-oxoethyl)phenyl)-3-phenyl-1H-pyrazol-5-yl)-3-(2,3-dichlorophenyl)urea] | 0.011 µM | 
0.349 µM | COc1ccc(-n2nc(C(C)(C)C)cc2NC(=O)Nc2cccc(F)c2F)cc1 [Example 312, 1-[3-t-butyl-1-(4-methoxyphenyl)-1H-pyrazol-5-yl]-3-(2,3-difluorophenyl)urea] |  | 
 | CC(Cc1ccc(-n2nc(C(C)(C)C)cc2NC(=O)Nc2cccc3ccccc23)cc1)C(=O)O (stereo not drawn) [Example 325, 3-(4-{3-t-butyl-5-[3-(naphthalen-1-yl)ureido]-1H-pyrazol-1-yl}phenyl)-2-methylpropanoic acid] |  | % @ concentration, uM ([2]; @ 10 uM): 54% @ 10
 | O=C(O)Cc1ccc(-n2nc(-c3cccc(F)c3)cc2NC(=O)Nc2cccc(Cl)c2Cl)cc1 [Example 439, 2-(4-(5-(3-(2,3-dichlorophenyl)ureido)-3-(3-fluorophenyl)-1H-pyrazol-1-yl)phenyl)acetic acid] | 0.013 µM | 
 | CCOC(=O)c1ccc(-n2nc(C(F)(F)F)cc2NC(=O)Nc2ccc(Cl)cc2)cc1 [Example 338, ethyl 4-{5-[3-(4 chlorophenyl)ureido]-3-(trifluoromethyl)-1H-pyrazol-1-yl}benzoate] |  | % @ concentration, uM ([2]; @ 2 uM): 7% @ 2
0.4 µM | CC(C)(C)c1cc(NC(=O)Nc2ccc(Cl)cc2)n(-c2cccc(CN3C(=O)NC(=O)C3=O)c2)n1 [Example 378, 1-{3-t-butyl-2-{3-[(2,4,5-trioxoimidazolidin-1-yl)methyl]phenyl}-1H-pyrazol-3-yl}-3-(4-chlorophenyl)urea] |  | 
 | CC(C)(C)c1cc(NC(=O)Nc2cccc3ccccc23)n(-c2ccc(O)cc2)n1 [Example 415, 1-(3-t-butyl-1-(4-hydroxyphenyl)-1H-pyrazol-5-yl)-3-(naphthalen-1-yl)urea] |  | % @ concentration, uM ([2]; @ 0.1 uM): 28%; % @ concentration, uM ([2]; @ 1 uM): 69%

SMILES | IC50 [2] | IC50 [3] | further results
O=C(Cc1ccc(-n2nc(-c3cccs3)cc2NC(=O)Nc2cccc(Cl)c2Cl)cc1)NC(CO)CO [Example 474, 1-(2,3-dichlorophenyl)-3-(1-(4-(2-(1,3-dihydroxypropan-2-ylamino)-2-oxoethyl)phenyl)-3-(thiophen-2-yl)-1H-pyrazol-5-yl)urea] | 0.38 µM | 0.013 µM | 
O=C(Cc1cccc(-n2nc(-c3ccsc3)cc2NC(=O)Nc2cccc(Cl)c2Cl)c1)NCCO [Example 458, 1-(2,3-dichlorophenyl)-3-(1-(3-(2-(2-hydroxyethylamino)-2-oxoethyl)phenyl)-3-(thiophen-3-yl)-1H-pyrazol-5-yl)urea] | 1 µM | 0.007 µM | inhibition at 1 µM [4]: 28%
O=C(Nc1cccc(Cl)c1Cl)Nc1cc(-c2ccccc2F)nn1-c1cccc(CO)c1 [Example 485, 1-(2,3-dichlorophenyl)-3-(3-(2-fluorophenyl)-1-(3-(hydroxymethyl)phenyl)-1H-pyrazol-5-yl)urea] | 0.05 µM |  | inhibition at 10 µM [1]: 79%
O=C(Cc1cccc(-n2nc(-c3cccc(F)c3)cc2NC(=O)Nc2cccc(Cl)c2Cl)c1)NCCO [Example 455, 1-(2,3-dichlorophenyl)-3-(3-(3-fluorophenyl)-1-(3-(2-(2-hydroxyethylamino)-2-oxoethyl)phenyl)-1H-pyrazol-5-yl)urea] | 0.1 µM | 0.018 µM | inhibition at 1 µM [4]: 30%
NC(=O)Cc1ccc(-n2nc(-c3cccs3)cc2NC(=O)Nc2cccc(Cl)c2Cl)cc1 [Example 468, 1-(1-(4-(2-amino-2-oxoethyl)phenyl)-3-(thiophen-2-yl)-1H-pyrazol-5-yl)-3-(2,3-dichlorophenyl)urea] | 0.0086 µM | 0.009 µM | IC50 [4]: 1.2 µM
CC(C)(C)c1cc(NC(=O)Nc2cccc(-c3cnccn3)c2)n(-c2cccc(CC(N)=O)c2)n1 [Example 509, 1-(1-(3-(2-amino-2-oxoethyl)phenyl)-3-tert-butyl-1H-pyrazol-5-yl)-3-(3-(pyrazin-2-yl)phenyl)urea] | 0.5 µM |  | IC50 [4]: 0.28 µM; Results, % @ concentration μM ([3]; @ 1.0 μM): 57% @1.0
O=C(O)Cc1ccc(-n2nc(-c3ccsc3)cc2NC(=O)Nc2cccc(Cl)c2Cl)cc1 [Example 444, 2-(4-(5-(3-(2,3-dichlorophenyl)ureido)-3-(thiophen-3-yl)-1H-pyrazol-1-yl)phenyl)acetic acid] | 5 µM | 0.006 µM | inhibition at 1 µM [4]: 42%
O=C(Cc1ccc(-n2nc(-c3cccs3)cc2NC(=O)Nc2cccc(Cl)c2Cl)cc1)NCC(O)CO (stereo not drawn) [Example 472, 1-(2,3-dichlorophenyl)-3-(1-(4-(2-(2,3-dihydroxypropylamino)-2-oxoethyl)phenyl)-3-(thiophen-2-yl)-1H-pyrazol-5-yl)urea] | 0.05 µM | 0.01 µM | 
